Tested on: PKM2
Assay: [18F]DASA-23 cellular uptake as measure of PKM2 expression in U87 GBM cells
Type: cell-based, Human
Experimental: [18F]DASA-23 can be used to detect changes in GBM metabolism in response to TMZ and TTFields therapies. In one experiment, Human U87 GBM cells were subjected to 200 kHz TTFields, the IC50 of TMZ, or vehicle for three or six days (n≥3/condition), followed by evaluation of [18F]DASA-23 uptake (e.g., FIGS. 2 and 6). Immunofluorescence for PKM2 was performed to confirm the [18F]DASA-23 uptake results. (e.g., FIG. 9). Western blot analysis was performed to determine the effect of TMZ and TTFields exposure on the expression of PKM2. 2-way ANOVA with multiple comparisons was performed. (e.g., FIG. 8). Data are reported as mean±SD.
The ability of [18F]DASA-23 to detect changes in metabolism in response to TMZ and TTFields therapies, in cell culture and an orthotopic murine model of human GBM (FIG. 6) was evaluated. There was a significant interaction between the treatment (vehicle, TMZ, or TTFields) and treatment duration (3 or 6 days) on PKM2 expression as measured by cellular uptake of [18F]DASA-23 (p=0.005, 2-way ANOVA) (FIG. 6).

[1] = U87 cells, after exposure to TTFields, over 60 minutes, FIG. 7

COc1ccc(S(=O)(=O)N2CCN(S(=O)(=O)c3c(F)cccc3[18F])CC2)cc1 [[18F]DASA-23, 1-((2-fluoro-6-[18F]fluorophenyl)sulfonyl)-4-((4-methoxyphenyl)sulfonyl)piperazine]
reduction of [18F]DASA-23 uptake (U87 cells, after exposure to TTFields, over 30 minutes, FIG. 7): at least 5% | reduction of [18F]DASA-23 retention [1]: at least 20% | reduction of [18F]DASA-23 uptake [1]: at least 10%

Cn1nnc2c(C(N)=O)ncn2c1=O [TMZ, Temozolomide]
reduction of PKM2 expression (U87 glioblastoma cells, over a 30 minute period, after treatment with chemotherapy (TMZ), FIG. 6): at least 10%

Reference: patent publication US20210199640A1, “Methods of Normalizing Aberrant Glycolytic Metabolism in Cancer Cells” (The Board of Trustees of the Leland Stanford Junior …, priority 2019, published 2021)
